{"source": "paper PMC9603770", "about": "“Broad-Spectrum Inhibitors against Class A, B, and C Type β-Lactamases to Block the Hydrolysis against Antibiotics: Kinetics and Structural Characterization” (Microbiology Spectrum, 2022)", "key": {"[1]": {"system": "β-lactamase-producing clones", "test": "MIC fold reduction of meropenem in combination with inhibitor (discussion summary)", "type": "cell-based, Escherichia coli", "text": "The combination of D2573 with cephalosporins (cefotaxime plus D2573 and cefoxitin plus D2573) or the combination of D2148 with cephalosporins (cefotaxime plus D2148 and cefoxitin plus D2148) or the combination of D63 with cephalosporins (cefotaxime plus D63 and cefoxitin plus D63) had […] MICs than the control. […] The MIC and MBC data are in harmony with in silico data which concluded that three potential inhibitors, D2573, D2148, and D63, are potential candidates against broad-spectrum β-lactamase-producing bacterial strains.\nThe MICs of various antibiotics in combination with selected inhibitors were determined on DH5α cells and clinical strains (AK-10, AK-12,AK-18, NP-6, AK-67, AK-66) using the microdilution method; Clinical and Laboratory Standards Institute (CLSI) guidelines were used to interpret the results ([37], [38]). In a series of 2-fold dilutions, E. coli cells were given escalating doses of antibiotics from 0 to 512 μg/mL."}, "CTX-M-15": {"molecular_target": "T1, CTX-M-15 (Escherichia coli, UniProt Q9EXV5)", "T1 construct": "made in house; host or cells: E. coli (DH5 and BL21(DE3) named)", "T1 sequence (Q9EXV5 29-291, species assumed)": "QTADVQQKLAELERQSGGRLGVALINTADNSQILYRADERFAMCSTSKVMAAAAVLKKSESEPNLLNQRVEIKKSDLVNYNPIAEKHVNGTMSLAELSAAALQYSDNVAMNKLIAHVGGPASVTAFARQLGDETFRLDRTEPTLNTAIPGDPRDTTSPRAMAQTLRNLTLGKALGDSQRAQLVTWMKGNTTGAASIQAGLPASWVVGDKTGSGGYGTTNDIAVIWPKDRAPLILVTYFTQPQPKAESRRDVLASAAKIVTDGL", "test": "Fluorescence quenching", "type": "binding", "details": "298 K", "description": "(§1) Fluorescence quenching can be either dynamic or static in nature. The fluorescence intensity was calculated to understand the mechanism of protein quenching from all three classes of β-lactamase with D63, D2148, and D2573. The KSV (Stern–Volmer quenching constant; [Q] is the concentration of inhibitor) of all protein-inhibitor complexes was calculated from the slope of plot Fo/F (fluorescence intensities in the absence and presence of quencher) versus [Q], whereas number of binding sites (n) and Kb values for all combinations of proteins and inhibitors were determined by the slope and intercept of plot log (Fo/F – 1) versus log[Q] (Table 9).\n(§2) A Shimadzu RF-5301PC spectrofluorometer (Shimadzu Corporation, Kyoto, Japan) was used to measure the fluorescence spectra. Quenching was observed by measuring intrinsic fluorescence at 295 nm between 300 and 400 nm. The emission and excitation slits were both adjusted to 5 nm. Then, 2 μM each D2573, D2148, and D63 were added to a 3-mL sample containing 2 μM protein ([…]). All the fluorescence intensities were corrected for the inner filter effect. The determination of the number of binding sites (n) and binding constant (Kb) at 298 K temperature for all the protein-inhibitor combinations from the Stern-Volmer equation and modified Stern-Volmer equation (equations 4 and 5). (4) (F0)/F = 1 + Ksv[Q] (5) Log (F0 − F)/F= logKb + n log[Q]\n(§3) Fo and F are the fluorescence intensities in the absence and presence of quencher (D63, D2148, D2573)."}, "KPC-2": {"molecular_target": "T2, KPC-2 (Klebsiella pneumoniae, UniProt Q9F663)", "T2 construct": "made in house; host or cells: E. coli (DH5 and BL21(DE3) named; pET-28a)", "T2 sequence (Q9F663 25-293, looked up, species assumed)": "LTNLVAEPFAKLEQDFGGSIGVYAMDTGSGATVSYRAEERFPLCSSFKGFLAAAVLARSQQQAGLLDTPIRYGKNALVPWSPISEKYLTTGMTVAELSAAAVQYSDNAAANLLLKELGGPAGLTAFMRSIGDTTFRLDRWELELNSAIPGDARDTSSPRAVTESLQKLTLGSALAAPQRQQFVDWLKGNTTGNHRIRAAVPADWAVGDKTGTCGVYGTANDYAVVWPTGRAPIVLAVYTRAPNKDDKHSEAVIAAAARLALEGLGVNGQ", "test": "Fluorescence quenching", "type": "binding", "details": "298 K", "description": "as §1, §2, §3"}, "NDM-1": {"molecular_target": "T3, NDM-1 (Klebsiella pneumoniae, UniProt C7C422)", "T3 construct": "made in house; host or cells: E. coli (DH5 and BL21(DE3) named)", "T3 sequence (C7C422 29-270, looked up, species assumed)": "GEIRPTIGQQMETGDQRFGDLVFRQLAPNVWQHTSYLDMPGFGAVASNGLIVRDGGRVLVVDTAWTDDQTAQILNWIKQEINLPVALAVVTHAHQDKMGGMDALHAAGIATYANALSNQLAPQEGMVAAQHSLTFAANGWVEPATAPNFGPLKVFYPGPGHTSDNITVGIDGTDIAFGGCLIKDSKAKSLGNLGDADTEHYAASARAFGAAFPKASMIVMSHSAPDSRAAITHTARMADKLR", "test": "Fluorescence quenching", "type": "binding", "details": "298 K", "description": "as §1, §2, §3"}, "SHV-1": {"molecular_target": "T4, SHV-1 (Klebsiella pneumoniae, UniProt P0AD64)", "T4 construct": "made in house; host or cells: E. coli (DH5 and BL21(DE3) named; pET-28a)", "T4 sequence (P0AD64 22-286)": "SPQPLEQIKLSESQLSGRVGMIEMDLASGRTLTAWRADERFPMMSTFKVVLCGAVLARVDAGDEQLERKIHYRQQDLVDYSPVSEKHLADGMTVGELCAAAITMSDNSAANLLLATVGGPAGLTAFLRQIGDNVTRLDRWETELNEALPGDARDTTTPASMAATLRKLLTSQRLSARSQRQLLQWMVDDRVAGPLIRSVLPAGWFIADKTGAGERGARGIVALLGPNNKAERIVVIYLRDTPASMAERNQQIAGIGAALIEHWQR", "test": "Fluorescence quenching", "type": "binding", "details": "298 K", "description": "as §1, §2, §3"}, "TEM-1": {"molecular_target": "T5, TEM-1 (Escherichia coli, UniProt P62593)", "T5 construct": "made in house; host or cells: E. coli (DH5 and BL21(DE3) named; pET-28a)", "T5 sequence (P62593 24-286 limits assumed)": "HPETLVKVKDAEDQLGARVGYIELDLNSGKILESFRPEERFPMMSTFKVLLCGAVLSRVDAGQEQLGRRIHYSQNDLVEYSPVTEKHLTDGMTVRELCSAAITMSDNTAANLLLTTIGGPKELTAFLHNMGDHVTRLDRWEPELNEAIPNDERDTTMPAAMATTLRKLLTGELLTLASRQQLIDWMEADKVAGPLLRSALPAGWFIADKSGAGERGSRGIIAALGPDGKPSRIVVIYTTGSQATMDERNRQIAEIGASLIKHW", "test": "Fluorescence quenching", "type": "binding", "details": "298 K", "description": "as §1, §2, §3"}, "Amp-C": {"molecular_target": "T6, Amp-C (Escherichia coli, UniProt P00811)", "T6 construct": "made in house; host or cells: E. coli (DH5 and BL21(DE3) named; pET-28a)", "T6 sequence (P00811 20-377)": "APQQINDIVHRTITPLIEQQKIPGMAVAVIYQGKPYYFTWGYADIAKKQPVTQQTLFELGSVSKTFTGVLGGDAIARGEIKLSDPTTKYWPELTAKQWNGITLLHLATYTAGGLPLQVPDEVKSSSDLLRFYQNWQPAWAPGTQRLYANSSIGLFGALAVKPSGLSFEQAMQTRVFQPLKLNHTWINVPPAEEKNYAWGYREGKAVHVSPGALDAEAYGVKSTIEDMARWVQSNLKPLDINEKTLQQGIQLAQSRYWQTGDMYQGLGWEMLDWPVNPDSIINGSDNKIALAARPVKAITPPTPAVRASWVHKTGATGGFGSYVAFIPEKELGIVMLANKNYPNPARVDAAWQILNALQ", "test": "Fluorescence quenching", "type": "binding", "details": "298 K", "description": "as §1, with “9). In this study, the KSV values were obtained, on the order of 10^2 to 10^5, for all enzyme-inhibitor complexes.” for “9).”\nas §2, §3"}, "MTT cytotoxicity assay": {"test": "MTT cytotoxicity assay", "type": "cell-based", "details": "mouse, NIH 3T3 cells, 50 μg/mL, read-out: cellular viability", "description": "(§4) Cytotoxicity of lead molecules D2573, D2148, and D63 on NIH 3T3 cells was evaluated by MTT assay. The relative cellular viability of NIH 3T3 cells in the presence of each sample D2573, D2148, and D63 at different concentrations (12.5 μg/mL, 25 μg/mL, and 50 μg/mL) is shown in Fig. 6.\n(§5) A cytotoxicity experiment was performed on NIH 3T3 cells. The NIH 3T3 cells were grown at 37°C in Dulbecco’s modified Eagle’s medium (DMEM) supplemented with 10% fetal bovine serum (FBS) and 1% antibiotic, penicillin-streptomycin (pen-strep), in a humidified incubator with 5% CO2. Sterile conditions were maintained at all times. Cells (~10^5 cells/well) were seeded in 96-well plates and allowed to adhere overnight. The cells were subsequently given different quantities of the lead compounds D2573, D2148, and D63 (12.5 μg/mL, 25 μg/mL, and 50 μg/mL, respectively). A conventional 3-(4,5-dimethylthiazol-2-yl)-2,5-diphenyl tetrazolium bromide (MTT) test was used to measure cell survival after 24 h. The supernatants were removed, and each well was filled with 90 μL of new medium and 10 μL of MTT (1 mg/mL) solution, which was then incubated for 4 h at 37°C. The formazan crystals generated during the reduction of MTT were dissolved in 150 μL of dimethyl sulfoxide (DMSO), and the absorbance was measured by measuring the optical density using a spectrophotometer at a wavelength of 570 nm."}, "NIH 3T3 cells": {"system": "NIH 3T3 cells", "test": "MTT cytotoxicity assay", "type": "cell-based", "details": "24 h; for cellular viability: 50 μg/mL; for cytotoxicity (result in words): up to 50 μg/mL", "description": "as §4, §5"}}}
{"smiles": "O=C(O)c1ccccc1C(=O)N1CCN(c2nc(-c3ccccc3)ns2)CC1", "note": "[D2573, 2-{[4-(3-phenyl-1,2,4-thiadiazol-5-yl)piperazino]carbonyl}benzoic acid]", "values": [{"measurement": "Reduction of MIC of meropenem in combination with inhibitor", "setting": "[1]; all selected β-lactamase enzymes", "result": 2, "unit": "fold"}, {"measurement": "n (number of binding sites)", "setting": "CTX-M-15", "result": 0.9674}, {"measurement": "n (number of binding sites)", "setting": "KPC-2", "result": 1.1315}, {"measurement": "n (number of binding sites)", "setting": "NDM-1", "result": 0.1842}, {"measurement": "n (number of binding sites)", "setting": "SHV-1", "result": 0.7621}, {"measurement": "n (number of binding sites)", "setting": "TEM-1", "result": 0.750}, {"measurement": "n (number of binding sites)", "setting": "Amp-C", "result": 0.7042}, {"measurement": "viability at 24 h, 50 μg/mL", "setting": "MTT cytotoxicity assay", "result": 82, "unit": "%"}, {"measurement": "cellular viability", "setting": "NIH 3T3 cells", "result": "> 75", "unit": "%"}, {"measurement": "cytotoxicity (result in words)", "setting": "NIH 3T3 cells", "result": "nontoxic"}]}
{"smiles": "O=C(c1ccccc1)C1CCN(C(=O)CN2C(=O)c3ccccc3C2=O)CC1", "note": "[D2148, 2-[2-(4-benzoylpiperidino) -2-oxoethyl]-1H-isoindole-1,3(2H)-dione]", "values": [{"measurement": "Reduction of MIC of meropenem in combination with inhibitor", "setting": "[1]; class A β-lactamases", "result": 2, "unit": "fold"}, {"measurement": "Reduction of MIC of meropenem in combination with inhibitor", "setting": "[1]; class B and C β-lactamases", "result": 4, "unit": "fold"}, {"measurement": "n (number of binding sites)", "setting": "CTX-M-15", "result": 1.163}, {"measurement": "n (number of binding sites)", "setting": "KPC-2", "result": 1.148}, {"measurement": "n (number of binding sites)", "setting": "NDM-1", "result": 2.457}, {"measurement": "n (number of binding sites)", "setting": "SHV-1", "result": 0.2952}, {"measurement": "n (number of binding sites)", "setting": "TEM-1", "result": 0.2489}, {"measurement": "n (number of binding sites)", "setting": "Amp-C", "result": 1.2792}, {"measurement": "viability at 24 h, 50 μg/mL", "setting": "MTT cytotoxicity assay", "result": "~78", "unit": "%"}, {"measurement": "cellular viability", "setting": "NIH 3T3 cells", "result": "> 75", "unit": "%"}, {"measurement": "cytotoxicity (result in words)", "setting": "NIH 3T3 cells", "result": "nontoxic"}]}
{"smiles": "O=C(CN1C(=O)c2ccccc2S1(=O)=O)c1ccc(O)c(O)c1", "note": "[D63, 2-[2-(3,4-dihydroxyphenyl)-2-oxoethyl]-1H-1,2-benzisothiazole-1,1,3(2H)-trione]", "values": [{"measurement": "Reduction of MIC of meropenem in combination with inhibitor", "setting": "[1]; class A β-lactamases", "result": 2, "unit": "fold"}, {"measurement": "Reduction of MIC of meropenem in combination with inhibitor", "setting": "[1]; class B and C β-lactamases", "result": 4, "unit": "fold"}, {"measurement": "n (number of binding sites)", "setting": "CTX-M-15", "result": 1.9313}, {"measurement": "n (number of binding sites)", "setting": "KPC-2", "result": 0.33}, {"measurement": "n (number of binding sites)", "setting": "NDM-1", "result": 1.6673}, {"measurement": "n (number of binding sites)", "setting": "SHV-1", "result": 0.4791}, {"measurement": "n (number of binding sites)", "setting": "TEM-1", "result": 0.4298}, {"measurement": "n (number of binding sites)", "setting": "Amp-C", "result": 0.8493}, {"measurement": "viability at 24 h, 50 μg/mL", "setting": "MTT cytotoxicity assay", "result": "~78", "unit": "%"}, {"measurement": "cellular viability", "setting": "NIH 3T3 cells", "result": "> 75", "unit": "%"}, {"measurement": "cytotoxicity (result in words)", "setting": "NIH 3T3 cells", "result": "nontoxic"}]}
